Data published in PubChem BioAssay AID504520 (The Scripps Research Institute Molecular Screening Center, 2011).
Active and inactive are the calls of the source. How the calls were made is not given here.

Legend:
Assay in all cases: LYPLA1 inhibition and serine hydrolase selectivity, late-stage follow-up, fluorescence, gel-based ABPP, mouse proteome (AID 504520);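 further: soluble proteome from BW5147 murine T cells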
Conditions in all cases: FP-rhodamine fluorescence, stronger effect = higher value
ESD = test system: ESD
ABHD11 = test system: ABHD11
LYPLA2 = test system: LYPLA2
LYPLA1 = test system: LYPLA1
[1] = molecular target: Platelet-activating factor acetylhydrolase 2, cytoplasmic (Mus musculus) (UniProt Q8VDG7)
Chain of Platelet-activating factor acetylhydrolase 2, cytoplasmic (Mus musculus) (Q8VDG7 whole entry, looked up): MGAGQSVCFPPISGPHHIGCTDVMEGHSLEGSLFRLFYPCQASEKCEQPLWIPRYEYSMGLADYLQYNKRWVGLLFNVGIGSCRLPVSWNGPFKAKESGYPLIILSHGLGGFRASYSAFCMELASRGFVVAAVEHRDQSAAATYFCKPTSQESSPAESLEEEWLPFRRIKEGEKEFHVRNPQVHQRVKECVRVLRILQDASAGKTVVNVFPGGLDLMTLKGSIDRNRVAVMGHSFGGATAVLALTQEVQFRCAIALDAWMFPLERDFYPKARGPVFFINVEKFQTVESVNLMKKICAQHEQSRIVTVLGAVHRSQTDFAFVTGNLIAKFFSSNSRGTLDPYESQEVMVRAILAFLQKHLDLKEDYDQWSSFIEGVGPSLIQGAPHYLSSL

Row | inhibition (ESD; at 0.75 µM) | inhibition (ESD; inhibition, at 0.03 µM) [%] | inhibition (ESD; inhibition, at 0.15 µM) [%] | inhibition (ABHD11; at 0.75 µM) | inhibition (ABHD11; inhibition, at 0.03 µM) [%] | inhibition (ABHD11; inhibition, at 0.15 µM) [%] | inhibition (LYPLA2; at 0.75 µM) | inhibition (LYPLA2; inhibition, at 0.03 µM) [%] | inhibition (LYPLA2; inhibition, at 0.15 µM) [%] | inhibition (LYPLA1; at 0.75 µM) | inhibition (LYPLA1; inhibition, at 0.03 µM) [%] | inhibition (LYPLA1; inhibition, at 0.15 µM) [%] | inhibition ([1]; PAFAH2, at 0.75 µM) | inhibition ([1]; PAFAH2, inhibition, at 0.03 µM) [%] | inhibition ([1]; PAFAH2, inhibition, at 0.15 µM) [%] | Compound
1 | 0% (inactive) | 0 | 0 | 100% | 100 | 100 | 50% (inactive) | 0 | 0 | 100% | 50 | 100 | 25% (inactive) | 0 | 0 | CC1CCN(C(=O)n2ncc(C(O)(c3ccccc3)c3ccccc3)n2)CC1
2 | 0% (inactive) | 0 | 0 | 0% (inactive) | 0 | 0 | 0% (inactive) | 0 | 0 | 0% (inactive) | 0 | 0 | 75% (inactive) | 0 | 0 | O=C(N(c1ccccc1)c1ccccc1)n1ncc(-c2ccc(Oc3ccccc3)cc2)n1
3 | 0% (inactive) | 0 | 0 | 50% (inactive) | 0 | 0 | 0% (inactive) | 0 | 0 | 0% (inactive) | 0 | 0 | 50% (inactive) | 0 | 0 | O=C(N(c1ccccc1)c1ccccc1)n1ncc(-c2cc(F)cc(F)c2)n1
4 | 25% (inactive) | 0 | 0 | 100% | 100 | 100 | 0% (inactive) | 0 | 0 | 100% | 50 | 100 | 0% (inactive) | 0 | 0 | O=C(N1CCCCC1)n1ncc(C(O)(c2ccccc2)c2ccccc2)n1
5 | 0% (inactive) | 0 | 0 | 0% (inactive) | 0 | 0 | 0% (inactive) | 0 | 0 | 0% (inactive) | 0 | 0 | 75% (inactive) | 0 | 0 | O=C(N(c1ccccc1)c1ccccc1)n1ncc(-c2ccc(-c3ccccc3)cc2)n1
6 | 0% (inactive) | 0 | 0 | 100% | 100 | 100 | 25% (inactive) | 0 | 0 | 100% | 0 | 50 | 0% (inactive) | 0 | 0 | O=C(N1CCCC(Cc2ccccc2)C1)n1cc(C(O)(c2ccccc2)c2ccccc2)nn1 (stereo not given)
